Assay [1] deals with Bacillus subtilis. Put plainly: Antimicrobial activity against Bacillus subtilis measured per disk. The assay is classed as functional.
The test system of assay [2] is P388. Nature of the assay: Cytotoxicity against mouse P388 cells. The assay is classed as functional, cell-based.
For assay [3], the system named is Candida albicans. Nature of the assay: Antimicrobial activity against Candida albicans measured per disk. The assay is classed as functional.
Assay [4] concerns Trichophyton mentagrophytes. Nature of the assay: Antimicrobial activity against Trichophyton mentagrophytes measured per disk. The assay is classed as functional.

Values after ≈ are worked out from the molar mass of the structure shown.

On to `C=Cc1[nH]ccc2c3ccccc3nc1-2`, for which the MID in assay [1] was 1.9 µg/mL; in assay [3], 1.9 µg/mL; in assay [4] it was 0.1 µg/mL. Moreover, the IC50 in assay [2] is 0.1 µg/mL (≈ 0.515 µM).
Regarding `CCc1nccc2c1[nH]c1ccccc12`, the MID in assay [1] came to 7.5 µg/mL; in assay [3] it was 1.9 µg/mL; in assay [4], 1.9 µg/mL. In addition, the IC50 in assay [2] is > 12.5 µg/mL.
Take `C=Cc1nccc2c1[nH]c1c(O)cccc12`: the MID in assay [1] was found to be 7.5 µg/mL; in assay [3], 15 µg/mL; in assay [4], 0.45 µg/mL. It took 0.1 µg/mL (≈ 0.476 µM) to reach half-maximal inhibition in assay [2] (IC50).
In the same order, the values of `C=Cc1nccc2c1[nH]c1c(OC)cccc12` are 7.5 µg/mL, 15 µg/mL, 0.45 µg/mL and 0.1 µg/mL (≈ 0.446 µM).
The corresponding values for `COc1ccc(Br)c2c1[nH]c1c(C)nccc12` are 2 µg/mL, 7.5 µg/mL, 7.5 µg/mL and 5.09 µg/mL (≈ 17.5 µM).
The corresponding values for `CCc1nccc2c1[nH]c1c(O)cccc12` are 30 µg/mL, 30 µg/mL, 30 µg/mL and > 12.5 µg/mL.
With `CCc1nccc2c1[nH]c1c(OC)cccc12`, the MID in assay [1] was >60 µg/mL; in assay [3] it was 7.5 µg/mL; in assay [4], 7.5 µg/mL. In addition, in assay [2], the half-inhibitory concentration (IC50) is > 12.5 µg/mL.
As to `C=Cc1nccc2c1[nH]c1c(OC(C)=O)cccc12`, the half-inhibitory concentration (IC50) in assay [2] was 0.65 µg/mL (≈ 2.58 µM).
As for `Cc1nccc2c1[nH]c1ccccc12` [HARMAN], the MID in assay [1] was 7.5 µg/mL; in assay [3], 1.9 µg/mL; in assay [4] it was 3.7 µg/mL. The 50% inhibitory concentration (IC50) in assay [2] is > 12.5 µg/mL.

As usually defined, the IC50 is the concentration needed to halve the response being measured. Lower therefore signals inhibition by little substance.

Values taken from ChEMBL document CHEMBL1151823, “5-Bromo-8-methoxy-1-methyl-beta-carboline, an alkaloid from the New Zealand marine bryozoan Pterocella vesiculosa” (J Nat Prod, 2009).
